Patent US12139487B2, “Compounds and uses thereof” (Foghorn Therapeutics Inc., priority 2022, dated 2024)

Columns and labels:
[1] = target: T1, BRM (Homo sapiens, UniProt P51531); assay: ATPase catalytic activity assay (ADP-Glo), BRM; type: biochemical; settings: Table 10; for Ratio (BRG1 IC50 (μM) divided by BRM IC50 (μM)): ATPase assay, selectivity BRG1/BRM; for IC50: ATPase catalytic activity assay (ADP-Glo)
T1 construct: made in house; host or cells: High Five insect cells
Procedure: (§1) The ATPase catalytic activity of BRM or BRG-1 was measured by an in vitro biochemical assay using ADP-Glo™ (Promega, V9102). The ADP-Glo™ kinase assay is performed in two steps once the reaction is complete. The first step is to deplete any unconsumed ATP in the reaction. The second step is to convert the reaction product ADP to ATP, which will be utilized by the luciferase to generate luminesce and be detected by a luminescence reader, such as Envision.
The assay reaction mixture […] contains 30 nM of BRM or BRG-1, 20 nM salmon sperm DNA (from Invitrogen, UltraPure™ Salmon Sperm DNA Solution, cat #15632011), and 400 μM of ATP in the ATPase assay buffer, which comprises of 20 mM Tris, pH 8, 20 mM MgCl2, 50 mM NaCl, 0.1% Tween-20, and 1 mM fresh DTT (Pierce™ DTT (Dithiothreitol), cat #20290). The reaction is initiated by the addition of the 2.5 μL ATPase solution to 2.5 μL ATP/DNA solution on low volume white Proxiplate-384 plus plate (PerkinElmer, cat #6008280) and incubates at room temperature for 1 hour. Then, following addition of 5 μL of ADP-Glo™ Reagent provided in the kit, the reaction incubates at room temperature for 40 minutes. Then, 10 μL of Kinase Detection Reagent provided in the kit is added to convert ADP to ATP, and the reaction incubates at room temperature for 60 minutes. Finally, luminescence measurement is collected with a plate-reading luminometer, such as Envision.

[2] = target: T2, BRG-1 (Homo sapiens, UniProt P51532); assay: ATPase catalytic activity assay (ADP-Glo), BRG-1; type: biochemical; settings: Table 10, read-out: BRG1 IC50
T2 construct: made in house; host or cells: High Five insect cells
Procedure: as §1
Then, following addition of 5 μL of ADP-Glo™ Reagent provided in the kit, the reaction incubates at room temperature for 40 minutes. Then, 10 μL of Kinase Detection Reagent provided in the kit is added to convert ADP to ATP, and the reaction incubates at room temperature for 60 minutes. Finally, luminescence measurement is collected with a plate-reading luminometer, such as Envision.

T2 sequence (P51532 whole entry): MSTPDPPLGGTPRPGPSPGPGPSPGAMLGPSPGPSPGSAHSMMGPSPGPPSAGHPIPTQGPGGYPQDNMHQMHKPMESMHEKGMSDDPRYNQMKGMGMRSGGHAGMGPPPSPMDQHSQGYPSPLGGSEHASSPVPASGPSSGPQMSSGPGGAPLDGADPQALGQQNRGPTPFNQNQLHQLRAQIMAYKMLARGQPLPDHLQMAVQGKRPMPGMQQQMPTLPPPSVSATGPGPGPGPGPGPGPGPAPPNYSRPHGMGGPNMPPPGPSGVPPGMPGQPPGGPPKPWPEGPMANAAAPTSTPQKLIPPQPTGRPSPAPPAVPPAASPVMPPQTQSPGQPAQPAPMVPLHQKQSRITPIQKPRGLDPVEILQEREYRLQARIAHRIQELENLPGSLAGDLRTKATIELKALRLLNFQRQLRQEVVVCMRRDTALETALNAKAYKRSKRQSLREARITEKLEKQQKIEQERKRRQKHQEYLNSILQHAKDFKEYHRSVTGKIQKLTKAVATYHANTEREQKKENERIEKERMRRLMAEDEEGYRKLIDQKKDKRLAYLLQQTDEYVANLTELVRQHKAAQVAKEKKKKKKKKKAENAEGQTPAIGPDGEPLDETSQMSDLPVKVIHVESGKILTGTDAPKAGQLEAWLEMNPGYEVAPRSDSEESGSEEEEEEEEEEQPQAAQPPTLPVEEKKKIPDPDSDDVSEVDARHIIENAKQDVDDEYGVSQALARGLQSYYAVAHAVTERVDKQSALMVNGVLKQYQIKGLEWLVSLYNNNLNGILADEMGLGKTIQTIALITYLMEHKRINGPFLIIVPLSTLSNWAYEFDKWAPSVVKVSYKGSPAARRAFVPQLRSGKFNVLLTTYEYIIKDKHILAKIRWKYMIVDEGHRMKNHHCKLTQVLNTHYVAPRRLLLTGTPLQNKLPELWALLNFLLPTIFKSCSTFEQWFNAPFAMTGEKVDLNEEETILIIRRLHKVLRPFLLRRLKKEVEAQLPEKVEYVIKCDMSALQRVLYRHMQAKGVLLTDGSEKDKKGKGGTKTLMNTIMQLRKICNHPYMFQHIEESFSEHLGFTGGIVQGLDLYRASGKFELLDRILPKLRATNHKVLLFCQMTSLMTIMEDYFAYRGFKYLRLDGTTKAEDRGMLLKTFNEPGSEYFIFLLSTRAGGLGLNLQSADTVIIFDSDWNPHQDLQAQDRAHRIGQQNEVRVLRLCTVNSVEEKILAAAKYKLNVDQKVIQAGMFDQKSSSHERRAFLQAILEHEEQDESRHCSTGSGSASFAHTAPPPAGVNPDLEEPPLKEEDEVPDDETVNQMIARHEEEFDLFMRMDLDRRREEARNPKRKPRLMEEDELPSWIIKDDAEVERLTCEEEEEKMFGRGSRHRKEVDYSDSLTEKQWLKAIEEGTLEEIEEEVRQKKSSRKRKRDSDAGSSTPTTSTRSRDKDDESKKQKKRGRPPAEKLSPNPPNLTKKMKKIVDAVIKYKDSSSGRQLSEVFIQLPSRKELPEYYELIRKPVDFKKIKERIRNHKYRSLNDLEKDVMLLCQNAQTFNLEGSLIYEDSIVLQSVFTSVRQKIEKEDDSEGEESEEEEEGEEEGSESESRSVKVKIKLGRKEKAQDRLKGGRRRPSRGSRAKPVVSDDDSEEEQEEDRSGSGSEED
T1 sequence (P51531 whole entry): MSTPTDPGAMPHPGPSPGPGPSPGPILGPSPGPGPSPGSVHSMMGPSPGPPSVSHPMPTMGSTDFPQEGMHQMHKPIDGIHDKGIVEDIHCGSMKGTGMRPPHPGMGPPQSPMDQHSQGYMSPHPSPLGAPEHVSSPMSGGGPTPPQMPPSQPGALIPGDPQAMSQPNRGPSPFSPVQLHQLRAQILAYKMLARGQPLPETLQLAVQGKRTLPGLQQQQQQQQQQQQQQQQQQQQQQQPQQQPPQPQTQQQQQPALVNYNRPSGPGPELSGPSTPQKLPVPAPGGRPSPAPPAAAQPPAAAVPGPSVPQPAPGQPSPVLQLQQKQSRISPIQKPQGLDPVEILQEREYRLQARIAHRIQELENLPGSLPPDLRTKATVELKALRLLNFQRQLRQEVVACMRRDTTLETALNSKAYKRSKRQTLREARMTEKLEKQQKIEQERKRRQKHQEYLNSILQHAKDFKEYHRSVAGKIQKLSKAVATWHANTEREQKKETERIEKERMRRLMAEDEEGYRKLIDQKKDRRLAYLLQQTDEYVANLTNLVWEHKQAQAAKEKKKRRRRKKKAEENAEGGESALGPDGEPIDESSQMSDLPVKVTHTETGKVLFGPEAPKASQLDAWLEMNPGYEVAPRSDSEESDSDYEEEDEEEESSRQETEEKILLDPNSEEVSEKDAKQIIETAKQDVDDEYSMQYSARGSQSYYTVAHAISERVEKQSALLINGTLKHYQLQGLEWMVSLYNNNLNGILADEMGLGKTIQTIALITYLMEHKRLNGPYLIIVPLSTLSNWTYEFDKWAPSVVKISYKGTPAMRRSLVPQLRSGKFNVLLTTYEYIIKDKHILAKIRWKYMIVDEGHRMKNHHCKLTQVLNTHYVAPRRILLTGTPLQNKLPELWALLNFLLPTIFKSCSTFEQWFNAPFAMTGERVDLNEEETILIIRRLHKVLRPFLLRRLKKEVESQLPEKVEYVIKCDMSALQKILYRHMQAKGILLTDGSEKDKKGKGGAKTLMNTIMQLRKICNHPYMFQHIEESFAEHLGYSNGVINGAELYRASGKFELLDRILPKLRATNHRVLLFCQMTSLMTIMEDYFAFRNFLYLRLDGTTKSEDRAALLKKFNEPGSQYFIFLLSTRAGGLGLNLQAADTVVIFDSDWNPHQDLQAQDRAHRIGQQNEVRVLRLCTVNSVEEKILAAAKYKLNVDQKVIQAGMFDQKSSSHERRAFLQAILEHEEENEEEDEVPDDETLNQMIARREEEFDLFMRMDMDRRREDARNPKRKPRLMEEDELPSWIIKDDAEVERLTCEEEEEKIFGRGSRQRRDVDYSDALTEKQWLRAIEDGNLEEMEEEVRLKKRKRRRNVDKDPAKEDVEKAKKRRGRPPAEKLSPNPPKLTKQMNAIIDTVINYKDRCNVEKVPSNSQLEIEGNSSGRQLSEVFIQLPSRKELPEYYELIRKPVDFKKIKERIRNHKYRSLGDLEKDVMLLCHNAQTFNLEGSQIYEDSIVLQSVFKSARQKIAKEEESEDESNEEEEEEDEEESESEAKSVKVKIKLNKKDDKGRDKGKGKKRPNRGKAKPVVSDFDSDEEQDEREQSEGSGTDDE

SMILES | Ratio (BRG1 IC50 (μM) divided by BRM IC50 (μM)) [1] | IC50 [1] [nM] | IC50 [2] [nM]
O=C(NCc1cc2nc(N3CCCc4cc(C5COC5)cnc43)ccc2cn1)c1cc(F)c2c(c1)S(=O)(=O)[C@@H](F)CCO2 [Compound 293] | 17.20 | 9.8 | 168
C[C@@H]1CN(c2cncc(-c3ccc4cnc(CNC(=O)c5cc(F)c6c(c5)S(=O)(=O)[C@@H](F)CCO6)cc4c3)n2)C[C@H](C)O1 [Compound 19, (4R)—N-[[6-[6-[(2S,6R)-2,6-dimethylmorpholin-4-yl]pyrazin-2-yl]-3-isoquinolyl]methyl]-4,9-difluoro-5,5-dioxo-3,4-dihydro-2H-1,5λ6-benzoxathiepine-7-carboxamide] | 13.20 | 1.6 | 20.7
O=C(NCc1cc2nc(N3CCOc4ccc([C@H]5C[C@H]5F)nc43)ccc2cn1)c1cc(F)c2c(c1)S(=O)(=O)[C@@H](F)CCO2 [Compound 277] | 19.61 | 9.1 | 90
Cc1cc(C(=O)NCc2cc3nc(-c4cccc(N5C[C@@H](C)O[C@@H](C)C5)n4)ccc3cn2)cc2c1COC[C@H](F)S2(=O)=O [Compound 21] | 16.50 | 1.6 | 28.3
O=C(NCc1cc2nc(N3CCOc4ccc([C@H]5C[C@H]5F)nc43)ccc2cn1)c1cc(F)c2c(c1)S(=O)(=O)[C@@H](F)COC2 [Compound 88] | 21.33 | 3.2 | 88.9
COc1nc([C@H](F)CF)ccc1-c1ccc2cnc(CNC(=O)c3cc(F)c4c(c3)S(=O)(=O)[C@@H](F)COC4)cc2n1 [Compound 44] | 23.96 | 2.1 | 64.1
COc1nc(C(F)F)ccc1-c1ccc2cnc(CNC(=O)c3cc(Cl)c4c(c3)S(=O)(=O)[C@@H](F)CCO4)cc2n1 [Compound 306] | 32.74 | 10.3 | 360
O=C(NCc1cc2nc(-c3ccc(OC(F)F)c(C4CC4)n3)ccc2cn1)c1cc(F)c2c(c1)S(=O)(=O)[C@@H](F)CCO2 [Compound 89] | 28.75 | 3.2 | 132
O=C(NCc1cc2nc(-c3ccc(C(F)F)c(C4CC4)n3)ccc2cn1)c1cc(F)c2c(c1)S(=O)(=O)[C@@H](F)CCO2 [Compound 60] | 18.66 | 2.6 | 53.1
Cc1cnc2c(c1)OCCN2c1ccc2cnc(CNC(=O)c3ccc4c(c3)S(=O)(=O)[C@@H](F)CCO4)cc2n1 [Compound 83] | 19.36 | 3.1 | 49.6
COc1cnc2c(c1)CCCN2c1ccc2cnc(CNC(=O)c3cc(F)c4c(c3)S(=O)(=O)[C@@H](F)CCO4)cc2n1 [Compound 133] | 18.45 | 4.5 | 94.2
O=C(NCc1cc2nc(N3CCOc4cc(N5CC[C@H]5CF)cnc43)ccc2cn1)c1cc(Br)c2c(c1)S(=O)(=O)[C@@H](F)CCO2 [Compound 323] | 13.90 | 11.8 | 164
O=C(NCc1cc2nc(N3CCOc4ccc([C@@H]5C[C@H]5C(F)F)nc43)ccc2cn1)c1cc(F)c2c(c1)S(=O)(=O)[C@@H](F)CCO2 [Compound 123] | 12.84 | 4.2 | 50.6
C[C@@H]1CN(c2cccc(-c3ccc4cnc(CNC(=O)c5ccc6c(c5)S(=O)(=O)[C@H](F)CCN6C)cc4n3)n2)C[C@H](C)O1 [Compound 319] | 25.94 | 192 | 4990
O=C(NCc1cc2nc(N3CCOc4cc(N5CC(F)C5)cnc43)ccc2cn1)c1cc(F)c2c(c1)S(=O)(=O)[C@@H](F)COC2 [Compound 30] | 19.40 | 1.8 | 39.1
O=C(NCc1cc2cc(N3CCOc4cc(C(F)F)cnc43)ccc2cn1)c1cc(F)c2c(c1)S(=O)(=O)[C@@H](F)CCO2 [Compound 303] | 10.70 | 10.1 | 108
O=C(NCc1cc2nc(N3CCOc4cc(C5CC5)cnc43)ccc2cn1)c1cc(Cl)c2c(c1)S(=O)(=O)[C@@H](F)CCO2 [Compound 216] | 21.18 | 6.5 | 148

SMILES | Ratio (BRG1 IC50 (μM) divided by BRM IC50 (μM)) [1] | IC50 [1] [nM] | IC50 [2] [nM]
C[C@H]1OC[C@H](F)S(=O)(=O)c2cc(C(=O)NCc3cc4nc(N5CCOc6cc(C7CC7)cnc65)ccc4cn3)ccc21 [Compound 162] | 17.63 | 11.3 | 221
O=C(NCc1cc2nc(N3CCOc4ccc(N5CC(F)(F)C5)nc43)ccc2cn1)c1cc(F)c2c(c1)S(=O)(=O)[C@@H](F)CCO2 [Compound 254] | 21.58 | 8 | 190
O=C(NCc1cc2nc(N3CCOc4cc(N5C[C@@H](F)[C@H](F)C5)cnc43)ccc2cn1)c1cc(Cl)c2c(c1)S(=O)(=O)[C@@H](F)COC2 [Compound 121] | 13.86 | 4.1 | 56.7
O=C(NCc1cc2nc(N3CCOc4cc(N5C[C@@H](F)[C@H](F)C5)cnc43)ccc2cn1)c1cc(F)c2c(c1)S(=O)(=O)[C@@H](F)COC2 [Compound 50] | 15.78 | 2.5 | 38.7
COCCOc1ccc2c(c1)N(c1ccc3cnc(CNC(=O)c4cc(F)c5c(c4)S(=O)(=O)[C@@H](F)CCO5)cc3n1)CCO2 [Compound 35] | 13.74 | 1.9 | 23.3
O=C(NCc1cc2nc(N3CCCc4c(OC5CC5)ccnc43)ccc2cn1)c1cc(F)c2c(c1)S(=O)(=O)[C@@H](F)CCO2 [Compound 18] | 15.43 | 1.5 | 24
Cc1cc(C(=O)NCc2cc3nc(N4CCOc5cc(N6CC[C@H]6C)cnc54)ccc3cn2)cc2c1OCC[C@H](F)S2(=O)=O [Compound 160] | 17.82 | 5.1 | 76
COc1nc(C(F)F)ccc1-c1ccc2cnc(CNC(=O)c3cc(Cl)c4c(c3)S(=O)(=O)[C@@H](F)COC4)cc2n1 [Compound 221] | 27.18 | 6.9 | 178
CCN(CC)c1cnc2c(c1)OCCN2c1ccc2cnc(CNC(=O)c3cc(F)c4c(c3)S(=O)(=O)[C@@H](F)CCO4)cc2n1 [Compound 99] | 12.19 | 3.5 | 42.7
O=C(NCc1cc2nc(-c3ccnc(N4CCCC4)n3)ccc2cn1)c1cc(F)c2c(c1)S(=O)(=O)[C@@H](F)CCO2 [Compound 188] | 20.95 | 5.8 | 132
O=C(NCc1cc2nc(N3CCOc4c(N5CCC5)ccnc43)ccc2cn1)c1cc(F)c2c(c1)S(=O)(=O)[C@@H](F)CCO2 [Compound 65] | 21.94 | 2.6 | 46.2
CCOc1cc(C(F)F)nc2c1OCCN2c1ccc2cnc(CNC(=O)c3cc(F)c4c(c3)S(=O)(=O)[C@@H](F)CCO4)cc2n1 [Compound 91] | 14.38 | 3.2 | 46.7
O=C(NCc1cc2nc(-c3ccnc([C@H]4CC4(F)F)n3)ccc2cn1)c1cc(F)c2c(c1)S(=O)(=O)[C@@H](F)CCO2 [Compound 195] | 24.88 | 5.9 | 168
[2H]C([2H])([2H])Oc1nscc1-c1ccc2cnc(CNC(=O)c3cc(F)c4c(c3)S(=O)(=O)[C@@H](F)CCO4)cc2n1 [Compound 226] | 14.90 | 7.1 | 106
Cc1cc2c(-c3ccc4cnc(CNC(=O)c5cc(F)c6c(c5)S(=O)(=O)[C@@H](F)CCO6)cc4n3)ccnc2n1C [Compound 267] | 10.49 | 8.8 | 91.8
O=C(NCc1cc2nc(N3CCOc4cc(C5CC5)cnc43)ccc2cn1)c1ccc2c(c1)S(=O)(=O)[C@@H](F)CCO2 [Compound 38] | 16.77 | 2 | 33.9
O=C(NCc1cc2nc(N3CCOc4cc(N5CC[C@H]5CF)cnc43)ccc2cn1)c1cc(F)c2c(c1)S(=O)(=O)[C@@H](F)CCO2 [Compound 31] | 18.05 | 1.8 | 33
